{"source": "patent US20140024663A1", "about": "“ATB(0,+) AMINO ACID TRANSPORTER AS A DRUG TARGET FOR TREATMENT OF ESTROGEN RECEPTOR-POSITIVE BREAST CANCER” (GEORGIA HEALTH SCIENCES UNIVERSITY RESEARCH INSTITUTE, INC., priority 2012, published 2014)", "key": {"[1]": {"system": "MCF7 cells", "test": "ASNS and CHOP mRNA by RT-PCR as readout for amino acid deprivation", "assay_type": "cell-based, human", "procedure": "FIGS. 6A to 6C. Effects of SLC6A14 blockade with α-MT in breast cancer cells. In FIG. 6A, MCF10A (a non-malignant mammary epithelial cell line), MCF7 (an ER-positive breast cancer cell line), and MB231 (an ER-negative breast cancer cell line) cells were treated with or without 2.5 mM α-MT for 24, 48, or 72 h and then used for analysis of asparagine synthetase (ASNS) and CHOP mRNA levels. In FIG. 6B, MCF7, MB231 and MCF10A cells were treated with or without 2.5 mM α-MT for 48 h and then used for immunocytochemical analysis of the constitutively expressed LC-3. In FIG. 6C, MCF7 cells were treated with (“b” and “c”) or without (“a”) α-MT (2.5 mM) for 48 h and then used for electron microscopy. Arrows indicate sequestration of cytoplasm and organelles in pre-autophagosomes and autophagosome, and the asterisk indicates condensed chromatin. N, nucleus. FIGS. 8A and 8B. Influence of α-MT on ASNS and CHOP mRNA levels in control MCF7 cells and in MCF7 cells with shRNA-induced silencing of SLC6A14. In FIG. 8A, five different SLC6A14-specific shRNAs were tested in MCF7 cells using a lentivirus-based system to monitor their efficacy to silence SLC6A14. SLC6A14 mRNA levels were measured by RT-PCR with GAPDH as an internal control. c, control. In FIG. 8B, SLC6A14 was silenced in MCF7 cells with shRNA-4 using a lentivirus-based system and then treated without or with α-MT (2.5 mM, 48 h). RNA isolated from the cells was then used for RT-PCR to monitor the levels of asparagine synthetase (ASNS) and CHOP mRNAs. FIG. 11. Estrogen-dependent suppression of the efficacy of α-MT to induce ASNS and CHOP expression in MCF7 cells. MCF7 cells were cultured in a phenol red-free medium in the absence or presence of estradiol (E2, 10 nM) for 24 h and then treated without or with α-MT (2.5 mM, 24 h). The cells were then used for analysis of SLC6A14, asparagine synthetase (ASNS), and CHOP mRNA levels by RT-PCR. Hypoxanthine/guanine phosphoribosyltransferase-1 (HPRT1) mRNA levels were used as an internal control. RT-PCR. Total RNA was isolated using TRIZOL™ (Invitrogen). 2 μg of RNA was reverse transcribed using the GeneAmp PCR System (Applied Biosystems, Branchburg, N.J.). PCR reaction was performed under optimal conditions specific for each of the primer pairs. GAPDH (glyceraldehyde-3-phosphate dehydrogenase) or HPRT1 (hypoxanthine/guanine phosphoribosyl transferase-1) were used as internal controls. PCR products were size-fractionated on agarose gel, stained with ethidium bromide and imaged using Alpha Imager (Santa Clara, Calif.). Densitometry was performed on PCR bands and normalized to the internal control. Normalized values were used to compare mRNA levels of target genes. Primers used for PCR were as follows."}, "[2]": {"system": "MB231 cells", "test": "Xenograft in nude mice, tumor growth", "assay_type": "in vivo, Balb/c nude mice", "conditions": "MB231 (ER-negative), α-MT in drinking water 2 mg/ml", "procedure": "(§1) FIGS. 10A to 10D. In vivo efficacy of α-MT in the treatment of ER-positive breast cancer. ZR75.1 (FIG. 10A), MCF7 (FIG. 10B), and MB-231 (FIG. 10C) cells were injected subcutaneously (sc) into Balb/c nude mice (10×10^6 cells per injection site). For MCF7 cells, slow-releasing estrogen pellets were implanted to support the tumor growth. For each cell line, the control group received water with sucrose and the treatment group received α-MT (2 mg/ml) in water with sucrose. Tumor size was measured periodically. NS, not statistically significant (p>0.05); *, p<0.005; two-tailed unpaired Student's t test. In FIG. 10D, Balb/c nude mice were divided into two groups; the control group received water with sucrose and the treatment group received α-MT (2 mg/ml) in water with sucrose for 2 weeks. Mice were then bled and α-MT in plasma was determined by HPLC. Xenograft in nude mice. Human breast cancer cells (ZR75.1, MCF7, and MB231) were injected s.c. close to the lower mammary gland on the right side of Balb/c nude mice (10×10^6 cells per injection site). Only for MCF7 cells, slow-releasing estrogen pellets were implanted to support the tumor growth. Implantation of estrogen pellets was done as follows. […] Tumor size in control and treatment groups was measured periodically by caliper and […] was calculated using the formula (width^2×length)/2."}, "[3]": {"system": "ZR75.1 cells", "test": "Xenograft in nude mice, tumor growth", "assay_type": "in vivo, Balb/c nude mice", "conditions": "ZR75.1 (ER-positive), α-MT in drinking water 2 mg/ml", "procedure": "as §1"}, "[4]": {"test": "Measurement of α-MT in mouse plasma by HPLC", "assay_type": "in vivo, Balb/c nude mice", "conditions": "mice, two weeks of administration in drinking water (2 mg/ml)", "procedure": "FIGS. 10A to 10D. In vivo efficacy of α-MT in the treatment of ER-positive breast cancer. ZR75.1 (FIG. 10A), MCF7 (FIG. 10B), and MB-231 (FIG. 10C) cells were injected subcutaneously (sc) into Balb/c nude mice (10×10^6 cells per injection site). For MCF7 cells, slow-releasing estrogen pellets were implanted to support the tumor growth. For each cell line, the control group received water with sucrose and the treatment group received α-MT (2 mg/ml) in water with sucrose. Tumor size was measured periodically. NS, not statistically significant (p>0.05); *, p<0.005; two-tailed unpaired Student's t test. In FIG. 10D, Balb/c nude mice were divided into two groups; the control group received water with sucrose and the treatment group received α-MT (2 mg/ml) in water with sucrose for 2 weeks. Mice were then bled and α-MT in plasma was determined by HPLC.\nMeasurement of α-MT in mouse plasma. Balb/c nude mice were divided into two groups; the control group received water with sucrose and the treatment group received α-MT (2 mg/ml) in water with sucrose for 2 weeks. Mice were then bled and α-MT in plasma was determined by HPLC as described by Laich et al (Laich et al., 2002, Clin Chem; 48:579-581)."}}, "data": [{"smiles": "CC(N)(Cc1c[nH]c2ccccc12)C(=O)O", "note": "(racemic) [α-MT, α-methyl-DL-tryptophan]", "values": [{"measurement": "levels of asparagine synthetase mRNA and CHOP mRNA", "setting": "[1]; MCF7, α-MT 2.5 mM, 24, 48 or 72 h", "value": "increased"}, {"measurement": "α-MT-induced increase of asparagine synthetase and CHOP expression", "setting": "[1]; MCF7 cells transfected with vector carrying shRNA #4 (SLC6A14 silenced), α-MT 2.5 mM, 48 h", "value": "markedly attenuated"}, {"measurement": "magnitude of α-MT-induced asparagine synthetase and CHOP expression", "setting": "[1]; MCF7 cells treated with estradiol 10 nM, phenol red-free medium, α-MT 2.5 mM, 24 h", "value": "significantly reduced"}, {"measurement": "expression levels of asparagine synthetase and CHOP", "setting": "[1]; MCF7 control cells transfected with empty vector, α-MT 2.5 mM, 48 h", "value": "increased"}, {"measurement": "expression of asparagine synthetase and CHOP", "setting": "[1]; MCF7 control cells, phenol red-free medium, absence of estradiol, α-MT 2.5 mM, 24 h", "value": "induced the expression"}, {"measurement": "tumor growth in xenograft", "setting": "[2]", "value": "did not affect the growth"}, {"measurement": "tumor growth in xenograft", "setting": "[3]", "value": "reduced the growth"}, {"measurement": "plasma concentration of α-MT", "setting": "[4]", "value": "8.5 ± 0.5", "unit": "µM"}]}]}
